System: T1, Nit09
T1 construct: His6-tagged, expressed in E. coli TOP10 from pBAD18, Ni-TED purified; gene 1005 bp
Assay: GDH-coupled NADH oxidation at […] nm, Michaelis-Menten fit
Type: biochemical, uncultured bacterium
Conditions: 37 °C, 0.1 M HEPES pH 8.0; fit up to 6 mM, substrate inhibition above 10 mM

N#CCc1ccccc1 [phenylacetonitrile]
Km: 1.29 mM

Reference: article PMC7228900, “From sequence to function: a new workflow for nitrilase identification” (Applied Microbiology and Biotechnology, 2020)
